Test systems include ACHN; SW-620; Malme-3M; MDA-MB-435; HL-60; HCT-116; M14; SR; 786-0; A549; SF-295; COLO 205; K562; NCI-H23; OVCAR-8; NCI-H522; HCT-15; SK-OV-3.
What all share (test): NCI anticancer screen, dose series, 48 h

The values that follow come from ChEMBL document CHEMBL1201862, “PubChem BioAssay data set” (2004).

Structures are written as SMILES.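 Following 48 hours of exposure in 96-well plates, responses at five concentrations were used to interpolate endpoints linearly. The concentration for 50% growth inhibition is given as GI50.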 Active and inactive are the calls of the source. Rule as the data show it: active = GI50 up to about 1.1 µM and inactive = higher. A value given as a limit tells only on which side of the number the result lay.

Consider `COc1nc2c(c(=O)[nH]1)N=C(c1ccc([N+](=O)[O-])cc1)CC(c1ccccc1)N2` (centres undefined), for which the GI50 in the experiment with ACHN is 76.4 µM (inactive); in the experiment with SW-620 it was > 100 µM (inactive); in the experiment on Malme-3M it was > 100 µM (inactive); in the experiment on MDA-MB-435, > 100 µM (inactive); in the experiment on HL-60 it was 16 µM (inactive); in the experiment with HCT-116, 34.5 µM (inactive). For the same molecule, the GI50 is > 100 µM (inactive) in the experiment with M14; 99.1 µM (inactive) in the experiment with SR; > 100 µM (inactive) in the experiment on 786-0; 83.4 µM (inactive) in the experiment on A549; > 100 µM (inactive) in the experiment with SF-295; > 100 µM (inactive) with COLO 205. The GI50 was 58.2 µM (inactive) in the experiment on K562, 69.8 µM (inactive) in the experiment with NCI-H23, > 100 µM (inactive) in the experiment on OVCAR-8 and 66.4 µM (inactive) in the experiment with NCI-H522.

As for `COC(=O)n1c(=O)n(-c2ccccc2)c(=O)n1C(=O)OC`, the GI50 in the experiment with SW-620, with Malme-3M, with MDA-MB-435, in the experiment on HL-60, with HCT-116 and in the experiment with M14 was > 100 µM (inactive) throughout. The GI50 is > 100 µM (inactive) in the experiment on SR; > 100 µM (inactive) in the experiment with 786-0; > 100 µM (inactive) with A549; above 100 µM with HCT-15; > 100 µM (inactive) with SK-OV-3; > 100 µM (inactive) in the experiment on COLO 205. Besides, the GI50 with K562, with NCI-H23, in the experiment with OVCAR-8 and in the experiment on NCI-H522 was > 100 µM (inactive) in each case.

Regarding `Cc1ccc(NC(=O)c2cc(S(=O)(=O)Nc3n[nH]c(=O)n3-c3ccccc3)c(S)cc2Cl)cc1`, the GI50 in the experiment with SW-620, in the experiment on Malme-3M, with MDA-MB-435, with HL-60, with HCT-116 and with M14 was > 100 µM (inactive) in each case. For the same molecule, the GI50 with SR was > 100 µM (inactive); in the experiment with 786-0, > 100 µM (inactive); in the experiment on A549, > 100 µM (inactive); in the experiment with HCT-15, above 100 µM; with SK-OV-3, > 100 µM (inactive); with COLO 205, > 100 µM (inactive). Also, the GI50 in the experiment on K562, with NCI-H23, with OVCAR-8 and in the experiment with NCI-H522 was > 100 µM (inactive) throughout.

As for `ClCCc1ccccc1CC1=NCCc2ccccc21`, the GI50 in the experiment with ACHN was 30.8 µM (inactive); with SW-620 it was 29.9 µM (inactive); in the experiment on MDA-MB-435, 28.8 µM (inactive); with HL-60, 31.3 µM (inactive); with HCT-116, 32.5 µM (inactive); with M14, 24.5 µM (inactive). For the same molecule, the GI50 with SR was > 100 µM (inactive); in the experiment with 786-0 it was 42.6 µM (inactive); with A549 it was 33.2 µM (inactive); in the experiment with HCT-15, 33 µM; in the experiment on SK-OV-3, 44.7 µM (inactive); with SF-295 it was 39.3 µM (inactive). The GI50 with COLO 205 was 24 µM (inactive); in the experiment with K562, 28.4 µM (inactive); with NCI-H23 it was 21.5 µM (inactive); in the experiment with OVCAR-8, 28.4 µM (inactive); in the experiment on NCI-H522, 16.7 µM (inactive).

Consider `NC(Cc1ccccc1)C(=O)NC(Cc1ccccc1)NC(=O)C(Cc1c[nH]c2ccccc12)C(=O)O` (centres undefined), for which the GI50 in the experiment with ACHN, in the experiment with SW-620, in the experiment with Malme-3M, with MDA-MB-435, in the experiment with HL-60 and with HCT-116 was > 100 µM (inactive) each time. The GI50 in the experiment with M14 is > 100 µM (inactive); in the experiment on SR, > 100 µM (inactive); with 786-0, > 100 µM (inactive); with A549, > 100 µM (inactive); in the experiment on HCT-15 it was above 100 µM; in the experiment with SK-OV-3 it was > 100 µM (inactive). The GI50 in the experiment on SF-295, in the experiment with COLO 205, in the experiment on NCI-H23, with OVCAR-8 and in the experiment with NCI-H522 was > 100 µM (inactive) throughout.

Regarding `CC(=O)Oc1ccc(/C=C/C(=O)O[C@@H](C(=O)O)[C@@H](OC(=O)/C=C/c2ccc(OC(C)=O)c(OC(C)=O)c2)C(=O)O)cc1OC(C)=O`, the GI50 with ACHN, in the experiment with SW-620, in the experiment on Malme-3M, in the experiment on MDA-MB-435, in the experiment on HCT-116 and in the experiment with M14 was > 100 µM (inactive) in each case. Moreover, the GI50 in the experiment with SR is > 100 µM (inactive); in the experiment on 786-0, > 100 µM (inactive); in the experiment with A549, > 100 µM (inactive); in the experiment on HCT-15 it was above 100 µM; with SK-OV-3 it was > 100 µM (inactive); in the experiment on SF-295, > 100 µM (inactive). The GI50 with COLO 205, in the experiment on K562, with NCI-H23, in the experiment on OVCAR-8 and in the experiment on NCI-H522 was > 100 µM (inactive) each time.

For `CC(=O)Oc1ccc2oc(=O)cc(C)c2c1`, the GI50 in the experiment on ACHN, in the experiment with SW-620, in the experiment with Malme-3M, with MDA-MB-435, in the experiment on HL-60 and in the experiment with HCT-116 was > 100 µM (inactive) throughout. The GI50 in the experiment with M14, in the experiment with SR, in the experiment on 786-0, with A549, in the experiment on SF-295 and in the experiment on COLO 205 was > 100 µM (inactive) throughout. The GI50 in the experiment with K562, in the experiment with NCI-H23, in the experiment with OVCAR-8 and in the experiment with NCI-H522 was > 100 µM (inactive) in each case.

Turning to `Clc1ncnc(Cl)c1Cl`, the GI50 in the experiment with ACHN, in the experiment with SW-620, with Malme-3M, in the experiment on MDA-MB-435, with HCT-116 and with M14 was > 100 µM (inactive) in each case. In addition, the GI50 was > 100 µM (inactive) in the experiment with SR; > 100 µM (inactive) in the experiment with 786-0; > 100 µM (inactive) in the experiment on A549; above 100 µM with HCT-15; > 100 µM (inactive) in the experiment on SK-OV-3; > 100 µM (inactive) in the experiment with SF-295. For the same molecule, the GI50 with COLO 205, with K562, in the experiment with NCI-H23, in the experiment on OVCAR-8 and in the experiment with NCI-H522 was > 100 µM (inactive) throughout.

`Cc1c(-c2ccccc2)nn2cc(-c3ccccc3)nnc12`: the GI50 in the experiment on ACHN was 46.3 µM (inactive); in the experiment with SW-620, 23 µM (inactive); with Malme-3M, 13.3 µM (inactive); in the experiment with MDA-MB-435 it was 29.5 µM (inactive); in the experiment on HCT-116 it was 20.7 µM (inactive); with M14, 22.6 µM (inactive). Moreover, the GI50 with SR is 33.5 µM (inactive); in the experiment with 786-0, 17.2 µM (inactive); with A549, 17.5 µM (inactive); in the experiment on HCT-15 it was 14.7 µM; with SK-OV-3, 39.3 µM (inactive); with SF-295, 34.8 µM (inactive). Further, the GI50 is 22.2 µM (inactive) in the experiment with COLO 205; 31 µM (inactive) with K562; 31.9 µM (inactive) with NCI-H23; 67.3 µM (inactive) in the experiment on OVCAR-8; 15.5 µM (inactive) with NCI-H522.
